A word on the melting point: it is the temperature of the solid-liquid transition.

From patent publication US6653486B2, “Spiroorthocarbonates containing epoxy groups” (Curators of the University of Missouri, priority 1999, dated 2003) come the findings set out here.

Series [1] in a line: Vinyl ether homopolymerization PDSC with and without EDMAB (Table 2). An excerpt:
For the experiments reported in Table 2, the photopolymerization of various vinyl ethers with and without the use of an electron donor to promote the reaction are reported. Data showing runs where EDMAB was used to promote the reaction are shown in parentheses after the numbers corresponding to runs without EDMAB.

For `C=COCCCCO` [BDVE, butanediol vinyl ether], the Rate Constant k in series [1] (with EDMAB) came to 3.6 min⁻¹; in series [1] (without EDMAB) it was 1.1 min⁻¹.

As to `C=COCC1CCC(COC=C)CC1` (stereo not shown) [CHDMDVE, 1,4-cyclohexanedimethanol divinyl ether], the results for the Rate Constant k in series [1] (with EDMAB) and in series [1] (without EDMAB) were 2.8 min⁻¹ and 0.5 min⁻¹, respectively.

`CCC(=O)OCC1(CC)COC2(OC1)OCC(CC)(COC(=O)CC)CO2` (stereo not shown) [DEDPM, 3,9-Diethyl-3,9-dipropionyloxymethyl-1,5,7,11-tetraoxaspiro[5.5]undecane] yielded a melting point of 68.1 °C.

`C=COCCOCCOC=C` [DEGDVE, di(ethylene glycol)divinyl ether]: the Rate Constant k in series [1] (with EDMAB) came to 1.4 min⁻¹; in series [1] (without EDMAB), 1.3 min⁻¹.

In turn, `FC(F)(F)C1CCOC2(OCCC(C(F)(F)F)O2)O1` (stereo not shown) [DTFM, 2,8-Ditrifluoromethyl-1,5,7,11-tetraoxaspiro[5.5]undecane] displayed a melting point of 122.4 °C.

`C=COCCOC=C` [EGDVE, ethylene glycol divinyl ether]: the Rate Constant k in series [1] (with EDMAB) was found to be 10.6 min⁻¹; in series [1] (without EDMAB) it was 3.6 min⁻¹.

Regarding `C=COCC1CO1` (stereo not shown) [GVE, glycidyl vinyl ether], the Rate Constant k was 0.8 min⁻¹ in series [1] (with EDMAB) and 1.1 min⁻¹ in series [1] (without EDMAB).

Regarding `C=COCCOCCOCCOC=C` [TEGDVE, tri(ethylene glycol)divinyl ether], the Rate Constant k in series [1] (with EDMAB) was 11.1 min⁻¹; in series [1] (without EDMAB), 2.1 min⁻¹.

Regarding hexanediol divinyl ether [HDDVE], the figures for the Rate Constant k in series [1] (with EDMAB) and in series [1] (without EDMAB) were 15.5 min⁻¹ and 1.4 min⁻¹, respectively.
